Results: patent publication US7820678B2, “Sodium channel blockers” (Parion Sciences, Inc., priority 2003, dated 2010)

In the case of `CS(=O)(=O)N(c1ccc(CCCCNC(=N)NC(=O)c2nc(Cl)c(N)nc2N)cc1)S(C)(=O)=O` [Example 4, N-(3,5-Diamino-6-chloropyrazine-2-carbonyl)-N′-[4-(4-bis(methanesulfonyl)aminophenyl)butyl]guanidine], the melting point is reported as 174 to 176 °C (dec.).
